{
  "source": "patent US20150175585A1",
  "about": "“FUSED QUINONIC COMPOUNDS” (CENTRO ATLANTICO DEL MEDICAMENTO S.A (CEAMED, S.A.), priority 2012, published 2015)",
  "key": {"JAK2": {"tested_on": "JAK2", "experiment": "JAK2 phosphorylation western blot assay", "assay_type": "cell-based, human", "conditions": "10 microM, HEL or K562 cells (table does not say which)", "description": "The Human Erythroleukemia cell line HEL and the human Chronic Myeloid Leukemia cell line K562 were cultured in RPM I 1640 medium containing 10% fetal bovine serum (FBS) and 50 U/ml penicillin/50 U/ml streptomycin at 37° C. in a 5% CO2 humidified atmosphere to a density of 300.000 viable cells/mL in presence of WP1066 (positive control of phosphorylation inhibition) (Verstovsek et al., 2008) or CM-363 at concentrations of 1, 5 and 10 μM. Cell culture reagents were all obtained from BioWhittaker® (Lonza, Verniers, Belgium). Cell growth and viability was determined by propidium iodide (fluorescent dye) exclusion method using the Accuchip 4× Counting Kit and the ADAM automatic cell counter (Digital-Bio, NanoEntek, Ic., Washington St, Mass., USA).As a control of unspecific phosphorylation, some cells in each experiment were exposed to vehicle (negative control of phosphorylation inhibition) (0.1% DMSO).\nFor total protein extraction, cells were scraped with RIPA 1× lysis buffer (25 mM Tris-HCl pH 7.6, 150 mM NaCl, 1% NP-40, 1% sodium deoxycholate, 0.1% SDS, no. 89900, Thermo Scientific, Rockford, Ill., USA) supplemented with 1× protease and 1× phosphatase inhibitor cocktails (100× Halt™ Protease Inhibitor Cocktail, no. 87786 and 100× Halt Phosphatase Inhibitor Cocktail, no. 78420, both from Thermo Scientific, Rockford, Ill., USA). An aliquot of each extract was preserved for protein quantification by bicinchoninic acid assay (Pierce® BCA Protein Assay Kit, no. 23225, Thermo Scientific, Rockford, Ill., USA).\nProteins were solubilized in sample buffer containing 0.0625 M Tris-HCl, pH 6.8, 2.3% (wt/vol) SDS, 10% (vol/vol) glycerol, 5% (vol/vol) f3-mercaptoethanol, and 0.001% (wt/vol) bromophenol blue and boiled at 95° C. for 5 min. Equal amounts (50 μg) of each sample were electrophoresed on 8-10% sodium dodecyl sulfate-polyacrylamide gel electrophoresis (SDS-PAGE) and transferred to nitrocellulose membranes (iBlot® Gel Transfer Stacks, Nitrocellulose, no. IB4010-02, Invitrogen, Barcelona, Spain) as described previously (Fernandez, L, et al., Endocrinology, 13, 1815-1824, 1998; B. Guerra et al., J. Neurochem, 91, 99-109, 2004; B. Guerra et al., J. Appl. Physiol., 102, 1786-1792, 2007; B. Guerra et al., J. Appl. Physiol., 111, 715-725, 2011). The nitrocellulose membranes were then removed from the iBlot® Dry GelTransfer Device (no. IB1001EU, Invitrogen, Barcelona, Spain) and placed in a Ponceau S staining solution (0.5% Ponceau S and 1% glacial acetic acid in water) to verify equal loading of protein in the control and treated samples. After the membranes were stained for 5 min, they were rinsed for 2 min and examined. Equal loading of protein was verified, and the membranes were rinsed for an additional 10 min and immunoscreened. Membranes were blocked with 5% blotting grade blocker nonfat dry milk in Tris Buffered Saline with 0.05% Tween 20 (TBST; blotto-blocking buffer) for at least […]) at room temperature. They were washed thrice in TBS with 0.1% Tween 20 (TBST-0.1). Next, the membranes were incubated over night at 4° C. with the appropriate anti-phospho-antibodies (described below) all diluted (1:1000) in 1% bovine serum albumin (BSA)-1% blotto in TBST (BSA-blotto blocking buffer). […] Membranes were stripped of bound antibodies by incubation in stripping buffer (Restore™ Western Blot Stripping Buffer, no. 21059, Thermo Scientific, Rockford, Ill., USA) at room temperature for 30 min with agitation. Membranes were washed for 3×10 min in TBST-0.1, blocked with blotto-blocking buffer for at least 1 h and re-probed with the corresponding anti-total kinase antibodies (described below) all diluted (1:1000) in blotto-blocking buffer. […]"}, "HEL cells [1]": {"tested_on": "HEL cells", "experiment": "HEL-based MTT cell viability assay", "set-up": "species or system human", "conditions": "Homo sapiens, 48 h, read-out: Activity (IC50, reduction of cell viability)", "description": "Cell viability was assayed by measuring the mitochondrial reduction of the tetrazolium salt 3-(4,5-methyltiazol-2yl)-2,5diphenyl-tetrazolium bromide] (MTT) (Applichen; A2231,0010) (Mosmann T. J Immunol Methods. 1983 16; 65(1-2):55-63; Chuan Y-C et al 2010. Oncogene. 29 (10), 1531-1542. Cells were seeded in 96-well plates in medium supplemented with 10% FBS (Lonza Cat. No: 14-502F), 2 mM L-Glut (Lonza Cat. No: BE17-605E) and 100 U/ml PEST (Lonza Cat. No: DE17-605E) at a cell density of 5000-20000 cells/well. Cells were seeded at a density according to their exponential growth phase. Vehicle (0.05% DMSO) or drug were added to culture medium at the indicated concentrations (10 to 0.01 microM) during 48 h. Then, MTT (0.3 mg/ml) was added to cells following by incubation for 2-4 h at 37° C. in the dark. The medium was then discarded and the formazan precipitate was solubilized by addition of 20% SDS (Sigma; L-5750) in 0.02N HCl (Panreac; 131020.1611) for 12-16 h. The optical density was measured at 595 nm with the iMark Microplate Reader (BioRad, USA). Data was expressed as percent growth above the level in controls and the results in figures were plotted as means±SEM of each test point from 3 replicates.\nStatistical analysis. The concentration of drug that provokes 50% reduction of cell viability (IC50) was determined by using non-linear regression analysis and data were fitted to a log concentration vs normalized response curve in GraphPad software v5 (San Diego, Calif.)."}, "HEL cells [2]": {"tested_on": "HEL cells", "experiment": "Induction of apoptosis in HEL cells (annexin-V-FITC/propidium iodide flow cytometry)", "assay_type": "cell-based, human", "conditions": "24 or 48 hours", "description": "FIG. 3. • Analysis of phosphatidylserine externalization in human erythroleukemia cells (HEL) treated with compound 4 or the reported JAK-STAT inhibitor WP 1066. A) At different concentrations for 24 hours. B) Representation of the data obtained after treatment of cells with 5 μM of compound 4 for 48 hours compared to vehicle. (C) Data obtained after treatment of the cells with a concentration of 5 μM of compound 4 for 24 or 48 hours. Data are representative of three experiments. * Signifies a P<0.01 difference from control. ^0 Signifies a P<0.001 difference from control.\nHuman erythroleukemia (HEL) cells, at a density of 1.5×10^5 cells/ml, were treated with compound 4 at the indicated concentrations for 24 or 48 hours. The cells were incubated with propidium iodide and annexin-V-FITC and the quantity of phosphatidylserine externalized was determined using flow cytometry."}},
  "data": [
    {"compound": "N#Cc1ccc(C2C3=C(CCCC3=O)OC3=C2C(=O)c2ccccc2C3=O)cc1", "note": "(stereo not drawn) [Compound 4, 4-(1,6,11-trioxo-2,3,4,6,11,12-hexahydro-1H-benzo[b]xanthen-12-yl)benzonitrile]", "values": [
      {"measurement": "Activity (inhibition of JAK2 phosphorylation)", "setting": "JAK2", "value": "++ (++represents an inhibition at 10 microM > 50%)"},
      {"measurement": "IC50", "setting": "HEL cells [1]", "value": "< 3", "unit": "µM"},
      {"measurement": "apoptosis of HEL cells (phosphatidylserine externalization)", "setting": "HEL cells [2]", "value": "induced, in a dose and time dependent manner, apoptosis"}
    ]}
  ]
}
